Assay results reported in US10550113B2, “2-phenyl-3H-imidazo[4,5-B]pyridine derivates useful as inhibitors of mammalian tyrosine kinase ROR1 activity” (Kancera AB, priority 2015, dated 2020).

Legend:
PBMC from CLL patients = test: CellTiter-Blue cell viability assay, cell toxicity in PBMC from CLL patients; type: cell-based; conditions: Homo sapiens, 50 000 cells/well, cultured 24, 48 and 72 h (time of the IC50 not stated), % cytotoxicity vs 0.2% DMSO
Procedure: (§1) Method for Measurement of Cell Toxicity
(§2) The CellTiter-Blue® Cell Viability Assay provides a homogeneous, fluorometric method for estimating the number of viable cells present in multi-well plates. The assay uses the indicator dye resazurin to measure the metabolic capacity of cells. Viable cells retain the ability to reduce resazurin into resorufin, which is highly fluorescent.
(§3) Stock solutions (10 or 100 mM in DMSO) of compounds were serially diluted 1:2 in 11 concentrations and 25 nL/well (100 mM stock) or 50 nL/well (10 mM stock) were acoustically dispensed in assay plates with an EDC acoustic dispenser. Final starting concentration in the assay was 20 μM (0.2% DMSO) or 100 μM (0.1% DMSO) for test compounds.
(§4) Peripheral blood mononuclear cells (PBMC) from CLL patients or healthy volunteers were seeded in assay plates (384-well black/clear, Greiner #781091) pre-dispensed with compounds, 25 μL/well, and cultured for 24, 48 and 72 h. The cell concentration was 50 000 cells/well for PBMC from CLL patients or healthy volunteers. After 24, 48 and 72 h culture, Celltiter Blue reagent was added (5 μL/well) and the plates were incubated for 2 h. The plates were read in an Envision fluorescence reader (PerkinElmer) with Ex544 nm/Em590 nm. Results were calculated as % cytotoxicity compared to background (cells treated with 0.2% DMSO).
(§5) Thus, IC50 values for cell toxicity in PBMC from CLL patients as well as healthy volunteers for some compounds of the invention are shown in Table 3.

[1] = CellTiter-Blue cell viability assay, cell toxicity in PBMC from healthy volunteers; type: cell-based; conditions: human, 50 000 cells/well, cultured 24, 48 and 72 h (time of the IC50 not stated), % cytotoxicity vs 0.2% DMSO
Procedure: as §1, §2, §3, §4, §5

SMILES | IC50 (PBMC from CLL patients) | IC50 [1]
CNC(=O)COc1ccc(-c2nc3c(NC4CCN(Cc5ccc(NC(C)=O)cc5)CC4)c(Cl)cnc3[nH]2)cc1 [Example 75, 2-[4-(7-{[1-(4-acetamidobenzyl)piperidin-4-yl]amino}-6-chloro-3H-imidazo[4,5-b]pyridin-2-yl)phenoxy]-N-methylacetamide] | 1120 nM | > 20000 nM
CNC(=O)COc1ccc(-c2nc3c(NC4CCN(Cc5ccc(C)cc5)CC4)c(Cl)cnc3[nH]2)cc1 [Example 82, 2-[4-(6-chloro-7-{[1-(4-methylbeiizyl)piperidin-4-yl]amino}-3H-imidazo[4,5-b]pyridin-2-yl)phenoxy]-N-methylacetamide] | 480 nM | > 20000 nM
CNC(=O)COc1ccc(-c2nc3c(NC4CCN(CCOc5ccccc5)CC4)c(Cl)cnc3[nH]2)cc1 [Example 96, 2-[4-(6-chloro-7-{[1-(2-phenoxyethyl)piperidin-4-yl]amino}-3H-imidazo[4,5-b]pyridin-2-yl)phenoxy]-N-methylacetamide] | 310 nM | 13600 nM
CNC(=O)COc1ccc(-c2nc3c(NC4CCN(Cc5ccc(-n6cncn6)cc5)CC4)c(Cl)cnc3[nH]2)cc1 [Example 99, 2-{4-[6-chloro-7-({1-[4-(1H-1,2,4-triazol-1-yl)benzyl]piperidin-4-yl}amino)-3H-imidazo[4,5-b]pyridin-2-yl]phenoxy}-N-methylacetamide] | 270 nM | > 20000 nM
CNC(=O)COc1cccc(-c2nc3c(NC4CCN(C)CC4)c(Cl)cnc3[nH]2)c1 [Example 117, 2-(3-{6-chloro-7-[(1-methylpiperidin-4-yl)amino]-3H-imidazo[4,5-b]pyridin-2-yl}phenoxy)-N-methylacetamide] | 320 nM | > 20000 nM
CCN1CC[C@H](Nc2c(Cl)cnc3[nH]c(-c4ccc(OCC(=O)NC)cc4)nc23)C1 [Example 132, 2-[4-(6-chloro-7-{[(3S)-1-ethylpyrrolidin-3-yl]amino}-3H-imidazo[4,5-b]pyridin-2-yl)phenoxy]-N-methylacetamide] | 860 nM | > 20000 nM
CN1CCC(Nc2c(Cl)cnc3[nH]c(-c4ccc(OCC(=O)NCCC5CCOCC5)cc4)nc23)CC1 [Example 147, 2-(4-{6-chloro-7-[(1-methylpiperidin-4-yl)amino]-3H-imidazo[4,5-b]pyridin-2-yl}phenoxy)-N-[2-(tetrahydro-2H-pyran-4-yl)ethyl]acetamide] | 140 nM | > 20000 nM
CNC(=O)COc1ccc(-c2nc3c(NC4CCN(C)CC4)c(Br)cnc3[nH]2)c(C)c1 [Example 159, 2-(4-{6-bromo-7-[(1-methylpiperidin-4-yl)amino]-3H-imidazo[4,5-b]pyridin-2-yl}-3-methylphenoxy)-N-methylacetamide] | 310 nM | > 20000 nM
CNC(=O)COc1ccc(-c2nc3c(NC4CCN(C)CC4)c(Cl)cnc3[nH]2)cc1OC [Example 168, 2-(4-{6-chloro-7-[(1-methylpiperidin-4-yl)amino]-3H-imidazo[4,5-b]pyridin-2-yl}-2-methoxyphenoxy)-N-methylacetamide] | 250 nM | > 20000 nM
CNC(=O)COc1ccc(-c2nc3c(NC4CCN(C)CC4)c(Br)cnc3[nH]2)cc1F [Example 184, 2-(4-{6-bromo-7-[(1-methylpiperidin-4-yl)amino]-3H-imidazo[4,5-b]pyridin-2-yl}-2-fluorophenoxy)-N-methylacetamide] | 110 nM | > 20000 nM
CNC(=O)Cc1ccc(-c2nc3c(NC4CCN(C)CC4)c(Cl)cnc3[nH]2)cc1 [Example 232, 2-(4-{6-chloro-7-[(1-methylpiperidin-4-yl)amino]-3H-imidazo[4,5-b]pyridin-2-yl}phenyl)-N-methylacetamide] | 570 nM | > 20000 nM
CN1CCC(Nc2c(Br)cnc3[nH]c(-c4ccc(OCC(=O)NC5CCCC5)cc4)nc23)CC1 [Example 259, 2-(4-{6-bromo-7-[(1-methylpiperidin-4-yl)amino]-3H-imidazo[4,5-b]pyridin-2-yl}phenoxy)-N-cyclopentylacetamide] | 33 nM | 11100 nM
CC(=O)NCCOc1ccc(-c2nc3c(NC4CCN(C)CC4)c(Cl)cnc3[nH]2)cc1 [Example 265, N-[2-(4-{6-chloro-7-[(1-methylpiperidin-4-yl)amino]-3H-imidazo[4,5-b]pyridin-2-yl}phenoxy)ethyl] acetamide] | 260 nM | > 20000 nM
CN1CCC(Nc2c(Cl)cnc3[nH]c(-c4ccc(OCCNC(=O)c5ccncc5)cc4)nc23)CC1 [Example 272, N-[2-(4-{6-chloro-7-[(1-methylpiperidin-4-yl)amino]-3H-imidazo[4,5-b]pyridin-2-yl}phenoxy)ethyl]pyridine-4-carboxamide] | 250 nM | > 20000 nM
CNC(=O)COc1ccc(-c2nc3c(NC4CCN(Cc5c(C)nn(C)c5C)CC4)c(Br)cnc3[nH]2)cc1 [Example 288, 2-{4-[6-bromo-7-({1-[(1,3,5-trimethyl-1H-pyrazol-4-yl)methyl]piperidin-4-yl}amino)-3H-imidazo[4,5-b]pyridin-2-yl]phenoxy}-N-methylacetamide] | 400 nM | > 20000 nM
CNC(=O)CNc1ccc(-c2nc3c(NC4CCN(C)CC4)c(Cl)cnc3[nH]2)cc1 [Example 294, N^2-(4-(6-chloro-7-[(1-methylpiperidin-4-yl)amino]-3H-imidazo[4,5-b]pyridin-2-yl}phenyl)-N-methylglycinamide] | 360 nM | > 20000 nM
CNC(=O)CCNc1ccc(-c2nc3c(NC4CCN(C)CC4)c(Cl)cnc3[nH]2)cc1 [Example 302, N^3-(4-{6-chloro-7-[(1-methylpiperidin-4-yl)amino]-3H-imidazo[4,5-b]pyridin-2-yl}phenyl)-N-methyl-b-alaninamide] | 620 nM | > 20000 nM
